# Measurements as given in article PMC5607274, “An iterative compound screening contest method for identifying target protein inhibitors using the tyrosine-protein kinase Yes” (Scientific Reports, 2017).
# Target: T1, human recombinant Yes [a.a. 2–543 (end)] (Homo sapiens, UniProt P07947)
# T1 construct: human recombinant Yes [a.a; 2–543 (end)]; purchased BPS Bioscience 40488
# Assay: ADP-Glo kinase assay, inhibition rates of Yes phosphorylation activity (first and second screening)
# Assay type: biochemical
# Settings: first screening; mean of n = 4 wells; 10 μmol L−1 compound
# In short: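 Hits from a first pass were rescreened after re-dissolution from fresh powder. The first pass reported the mean inhibition rate of quadruplicate wells per compound. Activity was that of recombinant human Yes [a.a. 2–543] kinase, read out with the ADP-Glo ADP-detection method.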
# T1 sequence (P07947 2-543): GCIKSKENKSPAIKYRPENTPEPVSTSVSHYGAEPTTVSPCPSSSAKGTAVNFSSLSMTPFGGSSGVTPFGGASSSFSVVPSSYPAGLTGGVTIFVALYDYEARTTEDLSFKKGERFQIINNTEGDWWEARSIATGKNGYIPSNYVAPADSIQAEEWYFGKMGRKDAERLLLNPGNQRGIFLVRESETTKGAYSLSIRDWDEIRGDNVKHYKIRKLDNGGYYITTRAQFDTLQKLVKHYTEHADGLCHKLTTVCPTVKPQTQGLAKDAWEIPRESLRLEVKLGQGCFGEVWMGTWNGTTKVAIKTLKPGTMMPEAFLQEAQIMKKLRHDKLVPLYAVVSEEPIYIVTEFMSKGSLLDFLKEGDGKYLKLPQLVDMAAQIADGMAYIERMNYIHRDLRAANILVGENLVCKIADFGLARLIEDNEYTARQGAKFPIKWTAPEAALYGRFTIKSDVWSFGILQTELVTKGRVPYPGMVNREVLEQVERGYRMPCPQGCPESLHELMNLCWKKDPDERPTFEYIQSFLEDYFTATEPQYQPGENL
row,Compound,First screening IR (inhibition rate) [%]
1,Cc1ccc(C)c(Cn2c(N3CCN(C/C=C/c4ccccc4)CC3)nc3c2c(=O)[nH]c(=O)n3C)c1 [Compound Z237733700],36
2,NS(=O)(=O)c1cccc(S(=O)(=O)N2CCCCC2)c1 [Compound Z237744790],-8
3,CCCN(CCC)S(=O)(=O)c1cccc(S(N)(=O)=O)c1 [Compound Z237751694],-9
4,CCN(CC)C(CNC(=O)C1CCN(c2ccc3nnc(C(F)(F)F)n3n2)CC1)c1ccccc1 (stereo not drawn) [Compound Z237862822],0
5,CCN(C(=O)c1cc(-c2ccccc2)nc2c1cnn2Cc1cccnc1)c1ccccc1 [Compound Z238053762],-11
6,CC(C)(C)OC(=O)N1CCN(C(=O)c2cc(-c3ccccc3)nc3c2cnn3Cc2ccncc2)CC1 [Compound Z238073806],5
7,CN(C(=O)c1ccc2c(c1)CC(c1ccccc1)OC2=O)c1nc2ccccc2s1 (stereo not drawn) [Compound Z238298390],-4
8,O=C(CN1CCOCC1)N1CCN(Cn2nc(-c3ccccc3)n(-c3ccc(F)cc3)c2=S)CC1 [Compound Z238616284],-5
9,CCOC(=O)c1sc2nc(CN3CCOCC3)nc(Nc3ccc(N4CCCCC4)nc3)c2c1C [Compound Z238683848],37
10,CC1CN(CCCNc2ccc([N+](=O)[O-])c3nonc23)CC(C)O1 (stereo not drawn) [Compound Z238688270],4
11,Clc1ccc(-c2csc(Nc3ccccc3)n2)s1 [Compound Z238765362],28
12,CC(=O)c1ccc(N2CCN(CC(=O)c3cc(C)[nH]c3C)CC2)c(F)c1 [Compound Z238811284],1
13,CC(C(=O)NC(c1ccccc1)c1ccccc1)N1CCN(c2ncnc3c2cnn3C)CC1 (stereo not drawn) [Compound Z238831180],64
14,Cn1c(=O)[nH]c(=O)c2c1nc(CN1CCN(c3cccc(Cl)c3)CC1)n2CCCc1ccccc1 [Compound Z238883342],-1
15,Cn1c(=O)[nH]c(=O)c2c1nc(N1CCC(Cc3ccccc3)CC1)n2CCSc1nnnn1-c1ccccc1 [Compound Z239083338],2
16,Cn1c(=O)[nH]c(=O)c2c1nc(N1CCN(Cc3ccccc3)CC1)n2CCSc1nnnn1-c1ccccc1 [Compound Z239092730],47
17,Cc1nn(C)c2ncc(NC(=O)c3cc(-c4ccco4)nc4onc(C)c34)cc12 [Compound Z239539964],1
18,NC(=O)C1CCCN(c2nc(-c3ccncc3)nc3ccccc23)C1 (stereo not drawn) [Compound Z239623050],13
19,COc1ccc(-n2c(-c3ccccc3)cn3c4c(=O)n(CCN5CCCCC5)c(=O)n(C)c4nc23)cc1 [Compound Z241121498],-22
20,O=C(NCc1ccccn1)c1cc(-c2cccnc2)nc2c1cnn2Cc1ccco1 [Compound Z242175442],22
21,Cc1ccc(Cn2c(=O)c3c(nc4n(-c5ccc(S(N)(=O)=O)cc5)c(C)cn34)n(C)c2=O)cc1 [Compound Z244561242],9
22,Nc1nc(NCC(=O)O)nc(NCC2CCCO2)c1[N+](=O)[O-] (stereo not drawn) [Compound Z244561600],9
23,COc1ccc(Nc2nc(N3CCCCC3)nc(N)c2[N+](=O)[O-])cc1 [Compound Z245295930],8
24,NC(=O)C(c1ccccc1)N1CCC(CCc2ccc(O)cc2)CC1 (stereo not drawn) [Compound Z245304076],-19
25,O=C(Nc1nc2cc(C(F)(F)F)ccc2n1Cc1ccco1)c1ccc2n[nH]nc2c1 [Compound Z245503032],0
26,Cn1c(=O)[nH]c(=O)c2c1nc(N1CCN(C/C=C/c3ccccc3)CC1)n2Cc1ccc(Cl)cc1 [Compound Z246071802],-14
27,O=S(=O)(Nc1cnc2ccccc2c1)c1ccc(Cl)c(Cl)c1 [Compound Z246801514],3
